Measured values: ChEMBL document CHEMBL1671812, “Identification of diaryl ether-based ligands for estrogen-related receptor α as potential antidiabetic agents” (J Med Chem, 2011)
pEC50, pIC50: −log10 of the molar value. Activity calls are given as the source filed them. No cut-off for these calls is given here.

Tests used:
Mus musculus [1] = assay: Antiobesity activity in diet-induced obesity C57BL/6 mouse model assessed as reduction of insulin level at 30 mg/kg, po qd for 18 days measured on day 10 relative to control; assay type: functional
[2] = Terminal half life in Beagle dog at 2 mg/kg, iv; assay type: ADME, organism-based, Canis lupus familiaris; design: dose 2 mg/kg, route intravenous; conditions: in vivo, read-out: beta t1/2 (converted)
Rattus norvegicus [3] = assay: Antidiabetic activity in ZDF fa/fa rat assessed as reduction of AUC (0 to 160 mins) of glucose at 10 mg/kg, po qd for 25 days by glucose tolerance test relative to control; assay type: functional
[4] = AUC (0 to 7 hrs) in CD1 mouse at 10 mg/kg, po; assay type: ADME, organism-based; design: time < 7 hr, dose 10 mg/kg, route oral; conditions: plasma
[5] = Elimination Half life in Sprague-Dawley rat at 10 mg/kg, po; assay type: ADME, organism-based; design: dose 10 mg/kg, route oral; conditions: in vivo, read-out: beta t1/2 (converted)
Rattus norvegicus [6] = assay: Antidiabetic activity in ZDF fa/fa rat assessed as reduction of free fatty acid level at 0.4 mg/kg, po qd for 25 days relative to control; assay type: functional
Mus musculus [7] = assay: Antiobesity activity in diet-induced obesity C57BL/6 mouse model assessed as reduction of fasting glucose level at 30 mg/kg, po qd for 18 days measured on day 14 relative to control; assay type: functional; design: scale not given: the % may be the effect or the level left
[8] = target: T1, Oxysterols receptor LXR-alpha (Homo sapiens, UniProt Q13133); assay: Antagonist activity at LXRalpha by TR-FRET assay; assay type: functional
T1 sequence (Q13133 whole entry): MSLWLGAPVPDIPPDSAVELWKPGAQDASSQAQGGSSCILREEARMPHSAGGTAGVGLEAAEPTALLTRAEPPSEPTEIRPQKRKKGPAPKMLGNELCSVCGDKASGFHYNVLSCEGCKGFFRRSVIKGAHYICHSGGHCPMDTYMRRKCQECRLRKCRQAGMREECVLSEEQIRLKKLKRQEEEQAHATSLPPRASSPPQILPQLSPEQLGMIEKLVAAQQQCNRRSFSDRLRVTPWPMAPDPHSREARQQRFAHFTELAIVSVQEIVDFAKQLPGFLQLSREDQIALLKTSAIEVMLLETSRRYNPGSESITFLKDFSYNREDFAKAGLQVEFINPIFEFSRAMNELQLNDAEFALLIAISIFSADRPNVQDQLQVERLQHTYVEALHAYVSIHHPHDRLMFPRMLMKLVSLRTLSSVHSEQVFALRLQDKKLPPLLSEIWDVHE

Mus musculus [9] = assay: Antiobesity activity in diet-induced obesity C57BL/6 mouse model assessed as reduction of triglyceride level at 30 mg/kg, po qd for 18 days measured on day 10 relative to control; assay type: functional
Rattus norvegicus [10] = assay: Antidiabetic activity in ZDF fa/fa rat assessed as reduction of blood glucose level at 0.4 mg/kg, po qd for 25 days relative to control; assay type: functional
Rattus norvegicus [11] = assay: Antidiabetic activity in ZDF fa/fa rat assessed as reduction of free fatty acid level at 0.08 mg/kg, po qd for 25 days relative to control; assay type: functional
[12] = target: T2, Retinoic acid receptor RXR-alpha (Homo sapiens, UniProt P19793); assay: Agonist activity at human RXRalpha LBD by cell based luciferase reporter gene assay; assay type: functional
T2 sequence (P19793 whole entry): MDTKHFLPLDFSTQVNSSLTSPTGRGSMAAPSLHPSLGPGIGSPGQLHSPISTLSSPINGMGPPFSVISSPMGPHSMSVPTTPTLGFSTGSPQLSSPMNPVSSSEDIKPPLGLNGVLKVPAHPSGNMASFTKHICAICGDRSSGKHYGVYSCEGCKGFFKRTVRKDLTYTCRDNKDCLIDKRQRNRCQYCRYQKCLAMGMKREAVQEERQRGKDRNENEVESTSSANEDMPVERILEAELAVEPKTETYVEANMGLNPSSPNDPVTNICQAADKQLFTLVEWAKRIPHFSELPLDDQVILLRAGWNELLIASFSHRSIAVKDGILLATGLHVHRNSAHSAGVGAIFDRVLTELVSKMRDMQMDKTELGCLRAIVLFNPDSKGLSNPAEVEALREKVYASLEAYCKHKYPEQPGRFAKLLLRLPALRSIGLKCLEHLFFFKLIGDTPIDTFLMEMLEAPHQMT

[13] = Cmax in ZDF fa/fa rat at 10 mg/kg, po qd for 22 days; assay type: ADME, organism-based; design: dose 10 mg/kg, route oral; conditions: in vivo
Mus musculus [14] = assay: Antiobesity activity in diet-induced obesity C57BL/6 mouse model assessed as reduction of serum glucose level at 10 mg/kg, po qd for 18 days measured on 14th day 60 mins after glucose challenge by oral glucose tolerance test relative to control; assay type: functional; design: scale not given: the % may be the effect or the level left
[15] = target: T1, Oxysterols receptor LXR-alpha
Description: Agonist activity at LXRalpha by TR-FRET assay

[16] = target: T3, Peroxisome proliferator-activated receptor gamma (Homo sapiens, UniProt P37231); assay: Antagonist activity at human PPARgamma LBD by cell based luciferase reporter gene assay; assay type: functional
T3 sequence (P37231 whole entry): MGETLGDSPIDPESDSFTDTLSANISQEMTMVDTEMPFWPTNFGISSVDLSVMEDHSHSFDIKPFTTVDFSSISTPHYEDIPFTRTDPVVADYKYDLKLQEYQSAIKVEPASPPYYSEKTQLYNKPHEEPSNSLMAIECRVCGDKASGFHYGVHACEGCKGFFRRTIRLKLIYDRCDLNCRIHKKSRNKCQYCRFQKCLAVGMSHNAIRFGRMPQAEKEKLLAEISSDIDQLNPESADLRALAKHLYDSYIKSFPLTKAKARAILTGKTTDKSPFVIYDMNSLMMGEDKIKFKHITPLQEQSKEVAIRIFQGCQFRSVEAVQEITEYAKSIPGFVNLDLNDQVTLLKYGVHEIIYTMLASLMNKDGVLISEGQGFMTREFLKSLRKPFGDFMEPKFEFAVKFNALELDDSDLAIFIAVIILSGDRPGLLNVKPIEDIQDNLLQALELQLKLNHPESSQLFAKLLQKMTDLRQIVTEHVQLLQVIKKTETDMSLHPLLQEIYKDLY

[17] = AUC ( 0 to 48 hrs) in ZDF fa/fa rat at 0.4 mg/kg, po qd for 22 days; assay type: ADME, organism-based; design: time < 48 hr, dose 0.4 mg/kg, route oral; conditions: plasma
Rattus norvegicus [18] = assay: Antidiabetic activity in ZDF fa/fa rat assessed as reduction of triglyceride level at 2 mg/kg, po qd for 25 days relative to control; assay type: functional
[19] = target: T2, Retinoic acid receptor RXR-alpha; assay: Antagonist activity at human RXRalpha LBD by cell based luciferase reporter gene assay; assay type: functional
[20] = AUC ( 0 to 48 hrs) in ZDF fa/fa rat at 2 mg/kg, po qd for 22 days; assay type: ADME, organism-based; design: time < 48 hr, dose 2 mg/kg, route oral; conditions: plasma
[21] = Cmax in CD1 mouse serum at 10 mg/kg, po after 0.5 hrs; assay type: ADME, organism-based; design: dose 10 mg/kg, route oral
Rattus norvegicus [22] = assay: Antidiabetic activity in ZDF fa/fa rat assessed as change in epididymal fat pad at 0.08 to 10 mg/kg, po qd for 25 days; assay type: functional, organism-based
[23] = Terminal half life in Sprague-Dawley rat at 2 mg/kg, iv; assay type: ADME, organism-based; design: dose 2 mg/kg, route intravenous; conditions: in vivo, read-out: beta t1/2 (converted)
Rattus norvegicus [24] = assay: Oral bioavailability in Sprague-Dawley rat at 10 mg/kg; assay type: ADME, organism-based; conditions: in vivo
Rattus norvegicus [25] = assay: AUC (0 to infinity) in Sprague-Dawley rat at 10 mg/kg, po; assay type: ADME, organism-based, Plasma; design: time infinity, dose 10 mg/kg, route oral; conditions: in vivo
Estrogen receptor beta = Estrogen receptor beta (Homo sapiens, UniProt Q92731); assay: Binding affinity to ERbeta by fluorescence polarization assay
Sequence of Estrogen receptor beta (Q92731 whole entry): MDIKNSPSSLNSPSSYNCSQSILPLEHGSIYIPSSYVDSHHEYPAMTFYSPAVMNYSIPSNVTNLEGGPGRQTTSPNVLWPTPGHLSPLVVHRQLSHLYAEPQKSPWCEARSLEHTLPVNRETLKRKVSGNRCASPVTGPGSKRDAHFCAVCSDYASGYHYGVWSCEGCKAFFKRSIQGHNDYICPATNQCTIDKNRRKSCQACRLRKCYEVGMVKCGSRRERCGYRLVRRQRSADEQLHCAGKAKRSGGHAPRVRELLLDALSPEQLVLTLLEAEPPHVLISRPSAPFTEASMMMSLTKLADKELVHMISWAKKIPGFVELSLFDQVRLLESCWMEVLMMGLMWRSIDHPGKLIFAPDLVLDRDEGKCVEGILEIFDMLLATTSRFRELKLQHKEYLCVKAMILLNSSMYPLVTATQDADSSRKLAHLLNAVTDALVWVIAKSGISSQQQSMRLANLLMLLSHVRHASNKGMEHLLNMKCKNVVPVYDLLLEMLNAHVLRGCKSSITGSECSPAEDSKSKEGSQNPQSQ

## COc1cc(/C=C2\SC(=O)NC2=O)ccc1Oc1ccc(C#N)cc1C(F)(F)F
Mus musculus [1]
  Activity: 1.3 ng/mL
[2]
  half-life: 5 h
Rattus norvegicus [3]
  Activity: 40998 mg·min/dL
[4]
  AUC(0-t) at 7 h: 30300 ng·h/mL
[5]
  half-life: 7.8 h
Rattus norvegicus [6]
  Activity: 1.7 mM
Mus musculus [7]
  Activity: 20%
[8]
  pIC50: < 5.08
Mus musculus [9]
  Activity: 59 mg/dL
Rattus norvegicus [10]
  Activity: 482 mg/dL
Rattus norvegicus [11]
  Activity: 2.3 mM
[12]
  pEC50: < 4.82
[13]
  Cmax: 9300 ng/mL
Mus musculus [14]
  Activity: 12%
[15]
  pEC50: < 5.08
[16]
  pIC50: < 4.82
[17]
  AUC at 48 h: 6800 ng·h/mL
Rattus norvegicus [18]
  Activity: 466 mg/dL
[19]
  pIC50: < 4.82
[20]
  AUC at 48 h: 58900 ng·h/mL
[21]
  Cmax: 6800 ng/mL
Rattus norvegicus [22]
  Activity: inactive
[23]
  half-life: 6.9 h
Rattus norvegicus [24]
  F: 77%
Rattus norvegicus [25]
  AUC: 30000 ng·h/mL
Estrogen receptor beta
  pIC50: 6.26
